Patent EP0943680A1 (priority 1998, dated 1999)
Values after ≈ are worked out from the molar mass of the structure shown. “Also recorded” adds a separate entry of the source. Where two headings read alike, the source gives them in different places. Marks after values point to notes of the source that are not given here.

What was measured:
Hs 683 Human Glioma = assay type: cell-based; conditions: parental Hs 683
[1] = in the absence of linamarase; cited from earlier work
[2] = tested on: C6 Rat glioma lin ^+ clones; assay: cells; assay type: cell-based; conditions: for IC50: Rattus norvegicus
[3] = tested on: ΨCRIP Murine Amphotropic Packaging Cells lin ^+ clones; assay: cells; conditions: Mus musculus
[4] = tested on: ΨCRIP Murine Amphotropic Packaging Cells; assay type: cell-based; conditions: parental ΨCRIP
[5] = tested on: brain tumor of glioblastoma-C6lin transfected cells; assay type: in vivo, Wistar rats
[6] = tested on: rat glioblastoma C6 cells brain tumour
C6, ΨCRIP and 3T3 = conditions: very high concentrations of linamarin; cells without linamarase gene
[7] = tested on: U-373 MG Human Glioblastoma; assay type: cell-based; conditions: parental U-373 MG
animals = conditions: cited from earlier work
[8] = tested on: Sk-N-MC Human Neuroblastoma; assay type: cell-based; conditions: parental Sk-N-MC
C6 Rat glioma = assay type: cell-based
[9] = tested on: Ag 9181 Human Fibroblasts; assay type: cell-based; conditions: parental Ag 9181
[10] = rat kidney only; 1-20 mM linamarin, pH 6 and 7.4, 37°C
[11] = tested on: U-373 MG Human Glioblastoma lin ^+ clones; assay: cells; assay type: cell-based; conditions: U373 MG, U-373 MG lin+
[12] = tested on: FLYA13 Human Amphotropic Packaging Cells; assay type: cell-based; conditions: parental FLYA13
Female hamsters = conditions: oral dose of 108 mg of linamarin/kg body weight; cited from earlier work
[13] = all human tissues; 1-20 mM linamarin, pH 6 and 7.4, 37°C
[14] = tested on: NlH 3T3 Murine Fibroblasts; assay type: cell-based; conditions: parental 3T3
adults = conditions: human, in vivo
[15] = tested on: FLYA13 Human Amphotropic Packaging Cells lin ^+ clones; assay: cells; assay type: cell-based
[16] = tested on: ΨCRIPlin /ΨCRIP red or ΨCRIPlin /3T3 red; assay type: cell-based; conditions: 100 µg/ml linamarin
[17] = tested on: ΨCRIPlin plus normal C6 cells labeled red with Dil; assay type: cell-based
[18] = tested on: Sk-N-MC Human Neuroblastoma lin ^+ clones; assay: cells; assay type: cell-based
normal rat brains = conditions: local administration of up to 9 mg of linamarin
[19] = tested on: Hs 683 Human Glioma lin ^+ clones; assay: cells; assay type: cell-based; conditions: Hs 683 lin+
[20] = tested on: Neoplastic cells forming a tumor; conditions: cited from earlier work
[21] = best clone, read-out: IC50 µg/ml Linamarin lin ^+ clones Best clone
[22] = mean of at least 4 clones, […], read-out: IC50 µg/ml Linamarin lin ^+ clones Mean value

Structure (SMILES): CC(C)(C#N)O[C@@H]1O[C@H](CO)[C@@H](O)[C@H](O)[C@H]1O [linamarin, 2-0H-isobutyronitrile-β-D-glucopyranoside]
- % of survival cells with 1 mg/ml Linamarin (Hs 683 Human Glioma): 80%
- excretion once absorbed [1]: excreted unchanged in the urine
- IC50 ([2]; C6lin clone, pH 6.6, read-out: estimated IC50): 202 µg/mL (≈ 817 µM)
- IC50 ([2]; C6lin clone, pH 7.4, read-out: estimated IC50): 345 µg/mL (≈ 1400 µM)
- IC50 ([2]; C6 lin+, best clone, read-out: IC50 µg/ml Linamarin lin ^+ clones Best clone): 345 µg/mL
- IC50 ([2]; C6 lin+, mean of at least 4 clones, […], read-out: IC50 µg/ml Linamarin lin ^+ clones Mean value): 407 µg/mL
- IC50 of C6lin clones relative to ΨCRIP individual clones ([2]; in general): 50 times higher
- IC50 ([3]; read-out: IC50 µg/ml Linamarin lin ^+ clones Best clone): 7 µg/mL
- IC50 ([3]; read-out: IC50 µg/ml Linamarin lin ^+ clones Mean value): 32 µg/mL
- IC50 ([3]; read-out: concentrations that resulted in 50% cytotoxicity (IC50)): 7 to 60 µg/mL (≈ 28.3 to 243 µM)
- % of survival cells with 1 mg/ml Linamarin ([4]; 1 mg/ml linamarin): 85%
- cell survival values ([4]; up to 2 mg/ml of linamarin): did not substantially decrease cell survival values
- outcome of the animal ([5]; similar size tumour, only 1 mg of linamarin): finally died as a consequence of the tumour
- tumour outcome by magnetic resonance imaging ([5]; tumour around 70 mm^3, total of 2.4 mg linamarin over 8 days, local infusion, image three weeks after treatment): total absence of the tumoral mass; also recorded: eradicated completely
- outcome of the medium size tumour animal ([6]; rat, in vivo): died a month later
- outcome of control animals treated only with the prodrug ([6]; tumours of 220 and 140 mm^3, […]): died shortly afterwards
- tumour outcome, largest and smallest glioblastomas ([6]; tumours of 1000 mm^3 and 400 mm^3, […]): total eradication of the tumour
- cases developing a recurrence later ([6]; very large tumors (over 500 mm^3 in size), after up to six months): approximately 50%
- cyanide detected after linamarin treatment (C6, ΨCRIP and 3T3): No cyanide was detected
- % of survival cells with 1 mg/ml Linamarin [7]: 80%
- toxicity compared with oral dosing (animals; administered intraperitoneally): practically absent
- toxicity compared with oral dosing (animals; similar doses intravenously): much lower
- % of survival cells with 1 mg/ml Linamarin [8]: 80%
- % of survival cells with 1 mg/ml Linamarin (C6 Rat glioma; 1 mg/ml linamarin, parental C6): 100^a %
- survival of C6 alone (C6 Rat glioma; 10 mg/ml linamarin): 86%
- % of survival cells with 1 mg/ml Linamarin [9]: 89^a %
- linamarase activity (cyanide release from linamarin) [10]: low but detectable levels of cyanide production
- IC50 [11, 21]: 145 µg/mL
- IC50 [11, 22]: 236 µg/mL
- % of survival cells with 1 mg/ml Linamarin [12]: 88^a %
- death (cyanide poisoning) (Female hamsters): 18 % of the animals
- linamarase activity (cyanide release from linamarin) [13]: negative results for linamarase activity
- % of survival cells with 1 mg/ml Linamarin [14]: 90^a %
- equivalent of the lethal cyanide dose (adults): 500 to 1000 mg
- IC50 ([15]; FLYA13lin clone, pH 6.6, read-out: estimated IC50): 77 µg/mL (≈ 311 µM)
- IC50 ([15]; FLYA13lin clone, pH 7.4, read-out: estimated IC50): 195 µg/mL (≈ 789 µM)
- IC50 ([15]; FLYA13 lin+, best clone, read-out: IC50 µg/ml Linamarin lin ^+ clones Best clone): 195 µg/mL
- IC50 ([15]; FLYA13 lin+, mean of at least 4 clones, […], read-out: IC50 µg/ml Linamarin lin ^+ clones Mean value): 382 µg/mL
- fate of the mixtures [16]: devastated
- viability of either cell type in the mixture ([17]; 100 µg/ml linamarin): affect only partially the viability
- fate of both cell types in the mixture ([17]; 2.5 mg/ml of linamarin): died
- IC50 [18, 21]: 183 µg/mL
- IC50 [18, 22]: 215 µg/mL
- toxicity (normal rat brains): No apparent toxicity
- IC50 [19, 21]: 230 µg/mL
- IC50 [19, 22]: 288 µg/mL

Structure (SMILES): N#CO [sodium cyanate]
- higher sensitivity to the inhibitory effects at decreased extracellular pH [20]: ≥ 50%
